Data set [1] relates to RSV (RSV A2 ECACC, 0709161v). Put plainly: RSV plaque reduction assay. The note with it: human respiratory syncytial virus, HepG2, read-out: RSV A2 Plaque EC50, RSV A2 in Hep-G2 cells; mean of at least two experiments unless noted (n = 1). Type of data set: cell-based, respiratory syncytial virus. Here is the method: Compounds w ere subjected to RSV plaque reduction assays according to the following protocol.
Hep-G2 cells (ECACC, 85011430) were passaged in flasks and seeded in 24-well plates in DMEM containing antibiotics and supplemented with 10% FBS. During inoculation and subsequent incubation, cells were cultured in DMEM containing 2% FBS. 100 plaque forming unit/well of RSV (RSV A2 ECACC, 0709161v) was mixed with eight serial dilutions of compound. Subsequently, 100 μL of the virus/compound mixtures was added to confluent Hep-G2 cell monolayers. The cells and virus/compound mixtures were incubated at 37° C. in a humidified 5% CO2 incubator for 2 h prior to removal of the inoculum and addition of 1 mL of overlay (DMEM containing 2% FBS and 0.8% CMC) containing compound dilutions. The cells and were incubated at 37° C. in a humidified 5% CO2 incubator for 2 days.
Cells were washed with PBS before adding 75/25% v/v EtOH MeOH, for 3 min. Fixative was removed and plates were washed with PBS. A pre-titrated amount of the primary antibody was added in 200 μL PBS/2% milk powder, and plates incubated for 90 min at 37° C. The plates were washed 3 times with PBS/0.05% Tween20 before addition of rabbit anti-goat horse radish peroxidase in 200 μL PBS/2% milk powder, and incubated for 1 h at 37° C. Following three wash steps with PBS/0.05% Tween20, 200 μL ready-to-use TrueBlue was added and plates were incubated at rt for 10-15 min before washing with water. After removal of water, plates were air-dried in the dark.
Plates were scanned and analysed using the Immunospot S6 Macro analyser, which is equipped with BioSpot analysis software for counting immunostained plaques (virospots). Plaque counts were used to calculate % infection relative to the mean of the plaque count in the virus control wells for RSV. […] Unless otherwise noted, plaque EC50 and cell toxicity CC50 values are a mean of at least two experiments and figures are rounded to whole units.
(Plaques are areas of infected cells; plaque reduction assays count them against a control.)

Data set [2] in a line: cell toxicity CC50. Type of data set: cell-based. The note with it: human; Hep-G2 cells; mean of at least two experiments; read-out: Cell Cytotoxicity CC50.

Our source for the EC50 and CC50 values is patent publication US12678446B2 (PFIZER INC., priority 2020, dated 2026).

Each structure is given as a SMILES string. Bounds are passed on as bounds.

As usually defined, the EC50 is the concentration needed to bring the measured effect to its halfway point. In general, CC50 refers to the concentration at which the toxic effect on the cells reaches its halfway point. Consider `O=C(N[C@H]1N=C(c2ccccc2)c2cccc(F)c2NC1=O)c1c(-c2ccc(F)cc2F)nn2c1OCC(CO)C2` (stereo partly drawn) [Example 128, 2-(2,4-Difluorophenyl)-N-[(3S)-9-fluoro-2-oxo-5-phenyl-1,3-dihydro-1,4-benzodiazepin-3-yl]-6-(hydroxymethyl)-6,7-dihydro-5H-pyrazolo[5,1-b][1,3]oxazine-3-carboxamide], for which, in data set [1], the EC50 came to 41 nM. In addition, the CC50 in data set [2] was above 25000 nM.
For `C[C@@H]1CCn2nc(C3CCN(S(C)(=O)=O)CC3)c(C(=O)N[C@H]3N=C(c4ccccc4)c4ccccc4NC3=O)c2O1` [Example 162, (5R)-5-Methyl-2-(1-methylsulfonylpiperi-din-4-yl)-N-[(3S)-2-oxo-5-phenyl-1,3-dihydro-1,4-benzodiazepin-3-yl]-6,7-dihydro-5H-pyrazolo[5,1-b][1,3]oxazine-3-carboxamide], in that order: 166 nM and above 25000 nM.
For `Cc1ccc(-c2nn3c(c2C(=O)N[C@H]2N=C(c4ccccc4)c4ccccc4NC2=O)O[C@H](C)CC3)c(C)n1` [Example 57, (5R)-2-(2,6-Dimethyl-3-pyridyl)-5-methyl-N-[(3S)-2-oxo-5-phenyl-1,3-dihydro-1,4-benzodiazepin-3-yl]-6,7-dihydro-5H-pyrazolo[5,1-b][1,3]oxazine-3-carboxamide], in that order: 353 nM and above 25000 nM.
As to `Cn1ncc2c(-c3nn4c(c3C(=O)N[C@H]3N=C(c5ccccc5)c5cccc(F)c5NC3=O)OCCC4)cccc21` [Example 147, N-[(3S)-9-fluoro-2-oxo-5-phenyl-1,3-dihydro-1,4-benzodiazepin-3-yl]-2-(1-methylindazol-4-yl)-6,7-dihydro-5H-pyrazolo[5,1-b][1,3]oxazine-3-carboxamide], the EC50 in data set [1] turned out to be 137 nM. Moreover, in data set [2], the CC50 is above 25000 nM.
Take `CCc1ccc(-c2nn3c(c2C(=O)N[C@H]2N=C(c4ccccc4)c4cccc(F)c4NC2=O)O[C@H](C)CC3)cn1` [Example 74, (5R)-2-(6-Ethylpyridin-3-yl)-5-methyl-N-[(3S)-9-fluoro-2-oxo-5-phenyl-1,3-dihydro-1,4-benzodiazepin-3-yl]-6,7-dihydro-5H-pyrazolo[5,1-b][1,3]oxazine-3-carboxamide]: in data set [1], the EC50 turned out to be 39 nM. In addition, in data set [2], the CC50 was above 25000 nM.
Turning to `C[C@@H]1CCn2nc(-c3ccsc3)c(C(=O)N[C@H]3N=C(c4ccccc4)c4ccccc4NC3=O)c2O1` [Example 64, (5R)-5-Methyl-N-[(3S)-2-oxo-5-phenyl-1,3-dihydro-1,4-benzodiazepin-3-yl]-2-(3-thienyl)-6,7-dihydro-5H-pyrazolo[5,1-b][1,3]oxazine-3-carboxamide], the EC50 in data set [1] was determined as 133 nM. Besides, in data set [2], the CC50 is above 25000 nM.
For `CCN(Cc1ccccc1)CC1COc2c(C(=O)N[C@H]3N=C(c4ccccc4)c4cccc(F)c4NC3=O)c(-c3ccccc3F)nn2C1` (stereo partly drawn) [Example 174, 6-[[Benzyl(ethyl)amino]methyl]-N-[(3S)-9-fluoro-2-oxo-5-phenyl-1,3-dihydro-1,4-benzodiazepin-3-yl]-2-(2-fluorophenyl)-6,7-dihydro-5H-pyrazolo[5,1-b][1,3]oxazine-3-carboxamide], in that order: 406 nM and above 25000 nM.
Consider `C[C@@H]1CCn2nc(-c3ccc(N4CC5(COC5)C4)nc3F)c(C(=O)N[C@H]3N=C(c4ccccc4)c4cccc(F)c4NC3=O)c2O1` (single isomer, unassigned) [Example 91], for which the EC50 in data set [1] was 239 nM. Moreover, the CC50 in data set [2] is above 25000 nM.
Take `O=C(N[C@H]1N=C(c2ccccc2)c2cccc(F)c2NC1=O)c1c(C2CC2)nn2c1OCCC2` [Example 45, 2-Cyclopropyl-N-[(3S)-9-fluoro-2-oxo-5-phenyl-1,3-dihydro-1,4-benzodiazepin-3-yl]-6,7-dihydro-5H-pyrazolo[5,1-b][1,3]oxazine-3-carboxamide]: the EC50 in data set [1] is 301 nM. For the same molecule, the CC50 in data set [2] was above 25000 nM.
In the same order, the values of `CC1Cn2nc(-c3ccccc3F)c(C(=O)N[C@H]3N=C(c4ccccc4)c4cccc(F)c4NC3=O)c2O1` (stereo in doubt) [Example 163, (2S)-N-[(3S)-9-fluoro-2-oxo-5-phenyl-1,3-dihydro-1,4-benzodiazepin-3-yl]-6-(2-fluorophenyl)-2-methyl-2,3-dihydropyrazolo[5,1-b][1,3]oxazole-7-carboxamide] are 76 nM and above 25000 nM.
For `C[C@@H]1CCn2nc(Nc3ccccc3)c(C(=O)N[C@H]3N=C(c4ccccc4)c4ccccc4NC3=O)c2O1` [Example 96, (5R)-2-Anilino-5-methyl-N-[(3S)-2-oxo-5-phenyl-1,3-dihydro-1,4-benzodiazepin-3-yl]-6,7-dihydro-5H-pyrazolo[5,1-b][1,3]oxazine-3-carboxamide], in that order: 464 nM and above 25000 nM.
In the case of `CCc1ncc(-c2nn3c(c2C(=O)N[C@H]2N=C(c4ccccc4)c4ccccc4NC2=O)O[C@H](C)CC3)cn1` [Example 59, (5R)-2-(2-Ethylpyrimidin-5-yl)-5-methyl-N-[(3S)-2-oxo-5-phenyl-1,3-dihydro-1,4-benzodiazepin-3-yl]-6,7-dihydro-5H-pyrazolo[5,1-b][1,3]oxazine-3-carboxamide], in data set [1], the EC50 was 309 nM. Also, in data set [2], the CC50 is above 25000 nM.
Regarding `O=C(N[C@H]1N=C(c2ccccc2)c2cccc(F)c2NC1=O)c1c(-c2ccccc2F)nn2c1OCC(Cn1cccn1)C2` (stereo partly drawn) [Example 124, N-[(3S)-9-fluoro-2-oxo-5-phenyl-1,3-dihydro-1,4-benzodiazepin-3-yl]-2-(2-fluorophenyl)-6-(pyrazol-1-ylmethyl)-6,7-dihydro-5H-pyrazolo[5,1-b][1,3]oxazine-3-carboxamide], the EC50 in data set [1] came out at 76 nM. In addition, the CC50 in data set [2] was above 25000 nM.
In the case of `C[C@@H]1CCn2nc(-c3cnn(CC(C)(C)O)c3)c(C(=O)N[C@H]3N=C(c4ccccc4)c4cccc(F)c4NC3=O)c2O1` [Example 122, (5R)-N-[(3S)-9-fluoro-2-oxo-5-phenyl-1,3-dihydro-1,4-benzodiazepin-3-yl]-2-[1-(2-hydroxy-2-methylpropyl)pyrazol-4-yl]-5-methyl-6,7-dihydro-5H-pyrazolo[5,1-b][1,3]oxazine-3-carboxamide], in data set [1], the concentration giving a half-maximal response (EC50) was found to be 166 nM. Further, the CC50 in data set [2] was above 25000 nM.
Turning to `C[C@@H]1CCn2nc(-c3ccc(CO)nc3)c(C(=O)N[C@H]3N=C(c4ccccc4)c4cccc(F)c4NC3=O)c2O1` [Example 155, (5R)-N-[(3S)-9-fluoro-2-oxo-5-phenyl-1,3-dihydro-1,4-benzodiazepin-3-yl]-2-[6-(hydroxymethyl)pyri-din-3-yl]-5-methyl-6,7-dihydro-5H-pyrazolo[5,1-b][1,3]oxazine-3-carboxamide], the EC50 in data set [1] is 219 nM. Moreover, the CC50 in data set [2] is above 25000 nM.
In the same order, the values of `C[C@@H]1CCn2nc(-c3ccc(CN(C)C)cc3F)c(C(=O)N[C@H]3N=C(c4ccccc4)c4cccc(F)c4NC3=O)c2O1` [Example 170, (5R)-2-[4-[(Dimethylamino)methyl]-2-fluorophenyl]-N-[(3S)-9-fluoro-2-oxo-5-phenyl-1,3-dihydro-1,4-benzodiazepin-3-yl]-5-methyl-6,7-dihydro-5H-pyrazolo[5,1-b][1,3]oxazine-3-carboxamide] are 60 nM and above 25000 nM.
Regarding `CCNc1ccc(-c2nn3c(c2C(=O)N[C@H]2N=C(c4ccccc4)c4cccc(F)c4NC2=O)OCCC3)cn1` [Example 20, 2-[6-(Ethylamino)pyridin-3-yl]-N-[(3S)-9-fluoro-2-oxo-5-phenyl-1,3-dihydro-1,4-benzodiazepin-3-yl]-6,7-dihydro-5H-pyrazolo[5,1-b][1,3]oxazine-3-carboxamide], the EC50 in data set [1] worked out at 42 nM. For the same molecule, in data set [2], the CC50 is above 25000 nM.
For `C[C@H]1CCn2nc(-c3cnn(CC(F)(F)F)c3)c(C(=O)N[C@H]3N=C(c4ccccc4)c4cccc(F)c4NC3=O)c2O1` [Example 157, (5S)-N-[(3S)-9-fluoro-2-oxo-5-phenyl-1,3-dihydro-1,4-benzodiazepin-3-yl]-5-methyl-2-[1-(2,2,2-trifluoroethyl)pyrazol-4-yl]-6,7-dihydro-5H-pyrazolo[5,1-b][1,3]oxazine-3-carboxamide], in that order: 48 nM and above 25000 nM.
In the case of `CS(=O)(=O)CC1COc2c(C(=O)N[C@H]3N=C(c4ccccc4)c4cccc(F)c4NC3=O)c(-c3ccccc3F)nn2C1` (stereo partly drawn) [Example 184, N-[(3S)-9-fluoro-2-oxo-5-phenyl-1,3-dihydro-1,4-benzodiazepin-3-yl]-2-(2-fluorophenyl)-6-(methylsulfonylmethyl)-6,7-dihydro-5H-pyrazolo[5,1-b][1,3]oxazine-3-carboxamide], the EC50 in data set [1] is 300 nM. In addition, the CC50 in data set [2] was above 25000 nM.
